Test results taken from patent publication US4330542A, “N(Sulfonyl)anilines for treating angina pectoris” (Sanofi, priority 1979, dated 1982).

Legend:
[1] = Heart-rate in anaesthetized atropinized dogs after intravenous injection; assay type: in vivo; settings: anaesthetized atropinized dog, 10 mg/kg intravenous
Procedure: (§1) The pharmacological investigation was carried out on anaesthetized dogs (30 mg/kg I.V. of sodium pentobarbital) having previously received an intravenous dose of 1 mg/kg of atropine sulphate.
(§2) The substance to be tested was given by an intravenous injection lasting two minutes after which the behaviour of both heart-rate and blood-pressure was observed over a certain period of time. An investigation was then carried out to detect any antiadrenergic properties. The compound listed hereunder were tested, in most cases in the form of pharmaceutically acceptable acid addition salts: […]

α-system [2] = experiment: Inhibitory effect on the α-system: reduction of epinephrine-increased blood-pressure in the atropinized dog; assay type: in vivo; settings: anaesthetized atropinized dog, 10 mg/kg intravenous
Procedure: (§3) A dose of epinephrine, sufficient to produce a stable increase in blood-pressure was administered to a dog anaesthetized with sodium pentobarbital which had previously received an intravenous injection of 1 mg/kg of atropine sulphate. The operation was repeated several times and the blood-pressure obtained was noted. When the latter had returned to its normal level, the animal was given an intravenous dose of 10 mg/kg of the compound to be tested followed by the same dose as above of epinephrine.

β-system = experiment: Antiadrenergic effect on the β-system: reduction of isoprenaline-increased heart-rate in the dog; assay type: in vivo; settings: anaesthetized atropinized dog, same method as epinephrine test (10 mg/kg intravenous)
Procedure: as §3
The antiadrenergic effects of the compounds of the invention on the β-system were also studied, by determining the degree to which they reduced isoprenaline-increased heart-rate. The same method as above was used.

[3] = Blood-pressure in anaesthetized atropinized dogs after intravenous injection; assay type: in vivo; settings: anaesthetized atropinized dog, 10 mg/kg intravenous
Procedure: as §1, §2

α-system [4] = experiment: Inhibitory effect on the α-system: reduction of epinephrine-increased blood-pressure in the atropinized dog; assay type: in vivo; settings: anaesthetized atropinized dog, dose as low as 2 mg/kg
[5] = Acute toxicity in the rat, intravenous route; settings: in vivo
Procedure: Acute toxicity tests were also carried out on the rat, by intravenous route.

Row | Compound | reduction in heart-rate [1] | reduction of epinephrine-induced arterial hypertension (α-system [2]) | reduction in isoprenaline-increased heart-rate (β-system) | reduction in blood-pressure [3] | reduction of epinephrine-induced arterial hypertension at low dose (α-system [4]) | LD50 [5]
1 | C=CCOc1ccccc1N(CC(O)CNC(C)(C)C)S(=O)(=O)c1ccc(OC)cc1 (centres unmarked) [Compound 14, 2-Allyloxy-N-(3-tert-butylamino-2 hydroxy-propyl)-N-(4-methoxy-benzenesulphonyl)-aniline] | marked and long-lasting reduction in heart-rate | reduced, at least partially, the epinephrine-induced arterial hypertension | marked reduction in the isoprenaline-increased heart-rate |  |  | 
2 | C=CCOc1ccccc1N(CC(O)CN1CCN(c2ccc(F)cc2)CC1)S(C)(=O)=O (centres unmarked) [Compound 23, 2-Allyloxy-N-[3-(4-(4-fluoro-phenyl)-1-piperazinyl)-2-hydroxy-propyl]-N-methylsulphonyl-aniline] |  | reduced, at least partially, the epinephrine-induced arterial hypertension |  | marked and constant reduction in blood-pressure |  | 
3 | C=CCOc1ccccc1N(CC(O)CN1CCN(c2ccccc2OC)CC1)S(C)(=O)=O (centres unmarked) [Compound 30, 2-Allyloxy-N-[2-hydroxy-3-(4-(2-methoxy-phenyl)-1-piperazinyl)-propyl]-N-methylsulphonyl-aniline] |  | reduced, at least partially, the epinephrine-induced arterial hypertension | marked reduction in the isoprenaline-increased heart-rate | marked and constant reduction in blood-pressure | Long-lasting and total reduction | 
4 | C=CCOc1ccccc1N(CC(O)CN1CCN(Cc2ccccc2)CC1)S(=O)(=O)c1ccc(C)cc1 (centres unmarked) [Compound 40, 2-Allyloxy-N-[3-(4-benzyl-1-piperazinyl)-2-hydroxy-propyl]-N-(4-methylbenzene-sulphonyl)-aniline] | marked and long-lasting reduction in heart-rate | reduced, at least partially, the epinephrine-induced arterial hypertension | marked reduction in the isoprenaline-increased heart-rate | marked and constant reduction in blood-pressure |  | 12 mg/kg
5 | C=CCOc1ccccc1N(CC(O)CN1CCN(c2ccccn2)CC1)S(=O)(=O)c1ccc(OC)cc1 (centres unmarked) [Compound 53, 2-Allyloxy-N-[2-hydroxy-3-(4-(2-pyridyl)-1-piperazinyl)-propyl]-N-(4-methoxy-benzenesulphonyl)-aniline] |  | reduced, at least partially, the epinephrine-induced arterial hypertension |  | marked and constant reduction in blood-pressure |  | 
6 | C=CCOc1ccccc1N(CC(O)CN1CCN(c2ccccc2F)CC1)S(=O)(=O)c1ccc(OC)cc1 (centres unmarked) [Compound 57, 2-Allyloxy-N-[2-hydroxy-3-(4-(2-fluoro-phenyl)-1-piperazinyl)-propyl]-N-(4-methoxy-benzenesulphonyl)-aniline] | marked and long-lasting reduction in heart-rate | reduced, at least partially, the epinephrine-induced arterial hypertension |  |  |  | 
7 | CS(=O)(=O)N(CC(O)CN1CCN(c2ccccc2Cl)CC1)c1ccc(Cl)c(Cl)c1 (centres unmarked) [Compound 75, 3,4-Dichloro-N-[3-(4-(2-chloro-phenyl)-1-piperazinyl)-2-hydroxy-propyl]-N-methylsulphonyl-aniline] |  | reduced, at least partially, the epinephrine-induced arterial hypertension |  | marked and constant reduction in blood-pressure |  | 
8 | COc1ccccc1N1CCN(CC(O)CN(c2ccc(Cl)c(Cl)c2)S(C)(=O)=O)CC1 (centres unmarked) [Compound 77, 3,4-Dichloro-N-[2-hydroxy-3-(4-(2-methoxy-phenyl)-1-piperazinyl)-propyl]-N-methylsulphonyl-aniline] | marked and long-lasting reduction in heart-rate | reduced, at least partially, the epinephrine-induced arterial hypertension |  | marked and constant reduction in blood-pressure |  | 
9 | COc1ccc(S(=O)(=O)N(CC(O)CN2CCN(c3ccc(Cl)cc3)CC2)c2ccc(Cl)c(Cl)c2)cc1 (centres unmarked) [Compound 84, 3,4-Dichloro-N-[3-(4-(4-chloro-phenyl)-1-piperazinyl)-2-hydroxy-propyl]-N-(4-methoxy-benzenesulphonyl)-aniline] | marked and long-lasting reduction in heart-rate | reduced, at least partially, the epinephrine-induced arterial hypertension |  |  |  | 
10 | CC(=O)Nc1ccc(N(CC(O)CN2CCN(c3ccccc3)CC2)S(C)(=O)=O)cc1 (centres unmarked) [Compound 88, 4-Acetylamino-N-[2-hydroxy-3-(4-phenyl-1-piperazinyl)-propyl]-N-methylsulphonyl-aniline] |  | reduced, at least partially, the epinephrine-induced arterial hypertension | marked reduction in the isoprenaline-increased heart-rate | marked and constant reduction in blood-pressure |  | 
11 | COc1ccccc1N1CCN(CC(O)CN(c2ccc(NC(C)=O)cc2)S(C)(=O)=O)CC1 (centres unmarked) [Compound 90, 4-Acetylamino-N-[2-hydroxy-3-(4-(2-methoxy-phenyl)1-piperazinyl)-2-hydroxy-propyl]-N-methyl-sulphonyl-aniline] |  | reduced, at least partially, the epinephrine-induced arterial hypertension |  | marked and constant reduction in blood-pressure |  | 
12 | CC(=O)Nc1ccc(N(CC(O)CN2CCN(c3ccccc3)CC2)S(=O)(=O)c2ccc(C)cc2)cc1 (centres unmarked) [Compound 91, 4-Acetylamino-N-[2-hydroxy-3-(4-phenyl-1-piperazinyl)-propyl]-N-(4-methyl-benzenesulphonyl)-aniline] | marked and long-lasting reduction in heart-rate | reduced, at least partially, the epinephrine-induced arterial hypertension |  | marked and constant reduction in blood-pressure |  | 
13 | COc1ccccc1N1CCN(CC(O)CN(c2ccc(NC(C)=O)cc2)S(=O)(=O)c2ccc(C)cc2)CC1 (centres unmarked) [Compound 94, 4-Acetylamino-N-[2-hydroxy-3-(4-(2-methoxy-phenyl)-1-piperazinyl)-propyl]-N-(4-methyl-benzenesulphonyl)-aniline] | marked and long-lasting reduction in heart-rate | reduced, at least partially, the epinephrine-induced arterial hypertension |  | marked and constant reduction in blood-pressure |  | 
14 | CC(=O)Nc1ccc(N(CC(O)CN2CCN(c3ccccc3Cl)CC2)S(=O)(=O)c2ccc(C)cc2)cc1 (centres unmarked) [Compound 95, 4-Acetylamino-N-[3-(4-(2-chloro-phenyl)-1-piperazinyl)-2-hydroxy-propyl]-N-(4-methyl-benzenesulphonyl)-aniline] |  |  |  | marked and constant reduction in blood-pressure |  | 
15 | COc1ccccc1N1CCN(CC(O)CN(c2ccc(CC(N)=O)cc2)S(=O)(=O)c2ccc(C)cc2)CC1 (centres unmarked) [Compound 105, N-[2-hydroxy-3-(4-(2-methoxy-phenyl)-1-piperazino)-propyl]-N-(4-methyl-benzenesulphonyl)-4-amino-phenylacetamide] |  | reduced, at least partially, the epinephrine-induced arterial hypertension |  | marked and constant reduction in blood-pressure |  | 
16 | N-[2-hydroxy-3-(4-(2-methoxy-phenyl)-1-piperazinyl)-propyl]-N-methylsulphonyl-4-amino-phenylacetamide [Compound 102] | marked and long-lasting reduction in heart-rate | reduced, at least partially, the epinephrine-induced arterial hypertension |  | marked and constant reduction in blood-pressure | Long-lasting and total reduction | 
17 | N-[3-(4-(4-chlorophenyl)-1-piperazinyl)-2-hydroxy-propyl]-N-methylsulphonyl-4-amino-phenylacetamide [Compound 99] |  | reduced, at least partially, the epinephrine-induced arterial hypertension |  |  |  | 
